According to US20230085307A1, “PYRIDAZINONE COMPOUND AND HERBICIDE” (NISSAN CHEMICAL CORPORATION, priority 2019, published 2023):

Tests used:
barnyard grass [1] = test: Test Example 4: herbicidal effect by soil treatment (Table 19, symbol H); assay type: in vivo, barnyard grass (Echinochloa crus-galli); conditions: amount of applied herbicide 320 g/ha
Summary of the method: (§1)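 Three weeks of greenhouse growth at 25° C. to 30° C. followed a uniform surface spray of water-diluted emulsion at a predetermined herbicide amount. Seeds had been sown beforehand under about 1.5 cm of sterilized diluvial soil. Grading followed criteria set out in an earlier test.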

southern crabgrass [2] = test: Test Example 4: herbicidal effect by soil treatment (Table 19, symbol F); assay type: in vivo, southern crabgrass (Digitaria ciliaris); conditions: amount of applied herbicide 320 g/ha
Summary of the method: as §1

windgrass [3] = test: Test Example 4: herbicidal effect by soil treatment (Table 19, symbol L); assay type: in vivo, windgrass (Apera spica-venti); conditions: amount of applied herbicide 320 g/ha
Summary of the method: as §1

wild oat [4] = test: Test Example 4: herbicidal effect by soil treatment (Table 19, symbol I); assay type: in vivo, wild oat (Avena fatua); conditions: amount of applied herbicide 320 g/ha
Summary of the method: as §1

late watergrass = test: Test Example 1: herbicidal activity, application before weed generation under submerged conditions (Table 16, symbol A); assay type: in vivo, late watergrass (Echinochloa oryzicola); conditions: 320 g/ha applied herbicide
Summary of the method: (§2)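 Submerged Wagner pots (alluvial soil, 4 cm water) sown with weed seeds and planted with 2.5-leaf rice seedlings; emulsifiable concentrate diluted in water applied to water surface on sowing day. Held in greenhouse at 25-30 °C; injury scored 0-5 by herbicidal rate after three weeks.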

redroot pigweed [5] = test: Test Example 4: herbicidal effect by soil treatment (Table 19, symbol N); assay type: in vivo, redroot pigweed (Amaranthus retroflexus); conditions: amount of applied herbicide 320 g/ha
Summary of the method: as §1

blackgrass [6] = test: Test Example 4: herbicidal effect by soil treatment (Table 19, symbol J); assay type: in vivo, blackgrass (Alopecurus myosuroides); conditions: amount of applied herbicide 320 g/ha
Summary of the method: as §1

Japanese bulrush = test: Test Example 1: herbicidal activity, application before weed generation under submerged conditions (Table 16, symbol B); assay type: in vivo, Japanese bulrush (Schoenoplectus juncoides); conditions: 320 g/ha applied herbicide
Summary of the method: as §2

Italian ryegrass [7] = test: Test Example 4: herbicidal effect by soil treatment (Table 19, symbol K); assay type: in vivo, Italian ryegrass (Lolium multiflorum); conditions: amount of applied herbicide 320 g/ha
Summary of the method: as §1

lambsquarters [8] = test: Test Example 5: herbicidal effect by foliage application, plastic box (Table 20, symbol O); assay type: in vivo, lambsquarters (Chenopodium album); conditions: foliage application, evaluated three weeks after application
Summary of the method: (§3)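 Plants sown in sterilized diluvial soil and grown 14 days in a greenhouse at 25° C to 30° C, then sprayed on the foliage with the compound's emulsion diluted in water to a predetermined herbicide amount. Injury to weeds and crops scored three weeks after application on a visual rating scale.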

persian speedwell [9] = test: Test Example 4: herbicidal effect by soil treatment (Table 19, symbol R); assay type: in vivo, Persian speedwell (Veronica persica); conditions: amount of applied herbicide 320 g/ha
Summary of the method: as §1

oval-leafed pondweed = test: Test Example 1: herbicidal activity, application before weed generation under submerged conditions (Table 16, symbol C); assay type: in vivo, oval-leafed pondweed (Monochoria vaginalis); conditions: 320 g/ha applied herbicide
Summary of the method: as §2

windgrass [10] = test: Test Example 5: herbicidal effect by foliage application, plastic box (Table 20, symbol L); assay type: in vivo, windgrass (Apera spica-venti); conditions: foliage application, evaluated three weeks after application
Summary of the method: as §3

wild oat [11] = test: Test Example 5: herbicidal effect by foliage application, plastic box (Table 20, symbol I); assay type: in vivo, wild oat (Avena fatua); conditions: foliage application, evaluated three weeks after application
Summary of the method: as §3

green foxtail [12] = test: Test Example 5: herbicidal effect by foliage application, plastic box (Table 20, symbol G); assay type: in vivo, green foxtail (Setaria viridis); conditions: foliage application, evaluated three weeks after application
Summary of the method: as §3

barnyard grass [13] = test: Test Example 5: herbicidal effect by foliage application, plastic box (Table 20, symbol H); assay type: in vivo, barnyard grass (Echinochloa crus-galli); conditions: foliage application, evaluated three weeks after application
Summary of the method: as §3

velvetleaf [14] = test: Test Example 5: herbicidal effect by foliage application, plastic box (Table 20, symbol M); assay type: in vivo, velvetleaf (Abutilon theophrasti); conditions: foliage application, evaluated three weeks after application
Summary of the method: as §3

southern crabgrass [15] = test: Test Example 5: herbicidal effect by foliage application, plastic box (Table 20, symbol F); assay type: in vivo, southern crabgrass (Digitaria ciliaris); conditions: foliage application, evaluated three weeks after application
Summary of the method: as §3

Italian ryegrass [16] = test: Test Example 5: herbicidal effect by foliage application, plastic box (Table 20, symbol K); assay type: in vivo, Italian ryegrass (Lolium multiflorum); conditions: foliage application, evaluated three weeks after application
Summary of the method: as §3

rice flat sedge = test: Test Example 3: herbicidal effect by foliage application, Wagner pot (Table 18, symbol E); assay type: in vivo, rice flat sedge (Cyperus iria); conditions: amount of applied herbicide 320 g/ha
Summary of the method: (§4)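 Plants were sown in alluvial soil held under 0.1–0.5 cm standing water and grown 14 days in a greenhouse at 25–30 °C. An emulsifiable formulation, water-diluted to the set dose, was then sprayed onto the foliage, and effects were scored three weeks later using previously defined criteria.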

blackgrass [17] = test: Test Example 5: herbicidal effect by foliage application, plastic box (Table 20, symbol J); assay type: in vivo, blackgrass (Alopecurus myosuroides); conditions: foliage application, evaluated three weeks after application
Summary of the method: as §3

lambsquarters [18] = test: Test Example 4: herbicidal effect by soil treatment (Table 19, symbol O); assay type: in vivo, lambsquarters (Chenopodium album); conditions: amount of applied herbicide 320 g/ha
Summary of the method: as §1

persian speedwell [19] = test: Test Example 5: herbicidal effect by foliage application, plastic box (Table 20, symbol R); assay type: in vivo, Persian speedwell (Veronica persica); conditions: foliage application, evaluated three weeks after application
Summary of the method: as §3

chickweed [20] = test: Test Example 4: herbicidal effect by soil treatment (Table 19, symbol P); assay type: in vivo, common chickweed (Stellaria media); conditions: amount of applied herbicide 320 g/ha
Summary of the method: as §1

Chinese sprangletop = test: Test Example 3: herbicidal effect by foliage application, Wagner pot (Table 18, symbol D); assay type: in vivo, chinese sprangletop (Leptochloa chinensis); conditions: amount of applied herbicide 320 g/ha
Summary of the method: as §4

green foxtail [21] = test: Test Example 4: herbicidal effect by soil treatment (Table 19, symbol G); assay type: in vivo, green foxtail (Setaria viridis); conditions: amount of applied herbicide 320 g/ha
Summary of the method: as §1

velvetleaf [22] = test: Test Example 4: herbicidal effect by soil treatment (Table 19, symbol M); assay type: in vivo, velvetleaf (Abutilon theophrasti); conditions: amount of applied herbicide 320 g/ha
Summary of the method: as §1

barnyard grass [23] = test: Test Example 3: herbicidal effect by foliage application, Wagner pot (Table 18, symbol H); assay type: in vivo, barnyard grass (Echinochloa crus-galli); conditions: amount of applied herbicide 320 g/ha
Summary of the method: as §4

chickweed [24] = test: Test Example 5: herbicidal effect by foliage application, plastic box (Table 20, symbol P); assay type: in vivo, common chickweed (Stellaria media); conditions: foliage application, evaluated three weeks after application
Summary of the method: as §3

redroot pigweed [25] = test: Test Example 5: herbicidal effect by foliage application, plastic box (Table 20, symbol N); assay type: in vivo, redroot pigweed (Amaranthus retroflexus); conditions: foliage application, evaluated three weeks after application
Summary of the method: as §3

SMILES | herbicidal effect on H: barnyard grass (barnyard grass [1]) | herbicidal effect on F: southern crabgrass (southern crabgrass [2]) | herbicidal effect on L: windgrass (windgrass [3]) | herbicidal effect on I: wild oat (wild oat [4]) | Herbicidal effect on A: late watergrass (grade 0-5) (late watergrass) | herbicidal effect on N: redroot pigweed (redroot pigweed [5]) | herbicidal effect on J: blackgrass (blackgrass [6]) | Herbicidal effect on B: Japanese bulrush (grade 0-5) (Japanese bulrush) | herbicidal effect on K: Italian ryegrass (Italian ryegrass [7]) | herbicidal effect on R: persian speedwell (persian speedwell [9]) | Herbicidal effect on C: oval-leafed pondweed (grade 0-5) (oval-leafed pondweed) | herbicidal effect on E: rice flat sedge (rice flat sedge) | herbicidal effect on O: lambsquarters (lambsquarters [18]) | herbicidal effect on P: chickweed (chickweed [20]) | herbicidal effect on D: Chinese sprangletop (Chinese sprangletop) | herbicidal effect on G: green foxtail (green foxtail [21]) | herbicidal effect on M: velvetleaf (velvetleaf [22]) | herbicidal effect on H: barnyard grass (barnyard grass [23]) | further results
CCCSc1cccc(-c2sc3ccc(F)cc3c2-c2c(O)c(C)nn(C)c2=O)c1 [2-246] | 0 (Herbicidal rate of 5% or less (almost no effect)) | 0 (Herbicidal rate of 5% or less (almost no effect)) | 0 (Herbicidal rate of 5% or less (almost no effect)) | 0 (Herbicidal rate of 5% or less (almost no effect)) | 2 (Herbicidal rate of 20% or more and less than 40%) | 0 (Herbicidal rate of 5% or less (almost no effect)) | 0 (Herbicidal rate of 5% or less (almost no effect)) | 0 (Herbicidal rate of 5% or less (almost no effect)) | 0 (Herbicidal rate of 5% or less (almost no effect)) | 5 (Herbicidal rate of 90% or more (almost completely withered)) | 0 (Herbicidal rate of 5% or less (almost no effect)) | 3 (Herbicidal rate of 40% or more and less than 70%) | 0 (Herbicidal rate of 5% or less (almost no effect)) | 3 (Herbicidal rate of 40% or more and less than 70%) | 0 (Herbicidal rate of 5% or less (almost no effect)) | 0 (Herbicidal rate of 5% or less (almost no effect)) | 0 (Herbicidal rate of 5% or less (almost no effect)) | 3 (Herbicidal rate of 40% or more and less than 70%) | herbicidal effect on O: lambsquarters (criteria 0-5) (lambsquarters [8]; 320 g/ha): 0 (Herbicidal rate of 5% or less (almost no effect)); herbicidal effect on L: windgrass (criteria 0-5) (windgrass [10]; 320 g/ha): 3 (Herbicidal rate of 40% or more and less than 70%); herbicidal effect on I: wild oat (criteria 0-5) (wild oat [11]; 320 g/ha): 4 (Herbicidal rate of 70% or more and less than 90%); herbicidal effect on G: green foxtail (criteria 0-5) (green foxtail [12]; 320 g/ha): 0 (Herbicidal rate of 5% or less (almost no effect)); herbicidal effect on H: barnyard grass (criteria 0-5) (barnyard grass [13]; 320 g/ha): 0 (Herbicidal rate of 5% or less (almost no effect)); herbicidal effect on M: velvetleaf (criteria 0-5) (velvetleaf [14]; 320 g/ha): 3 (Herbicidal rate of 40% or more and less than 70%); herbicidal effect on F: southern crabgrass (criteria 0-5) (southern crabgrass [15]; 320 g/ha): 0 (Herbicidal rate of 5% or less (almost no effect)); herbicidal effect on K: Italian ryegrass (criteria 0-5) (Italian ryegrass [16]; 320 g/ha): 2 (Herbicidal rate of 20% or more and less than 40%); herbicidal effect on J: blackgrass (criteria 0-5) (blackgrass [17]; 320 g/ha): 1 (Herbicidal rate of 5% or more and less than 20%); herbicidal effect on R: persian speedwell (criteria 0-5) (persian speedwell [19]; 320 g/ha): 5 (Herbicidal rate of 90% or more (almost completely withered)); herbicidal effect on P: chickweed (criteria 0-5) (chickweed [24]; 320 g/ha): 5 (Herbicidal rate of 90% or more (almost completely withered)); herbicidal effect on N: redroot pigweed (criteria 0-5) (redroot pigweed [25]; 320 g/ha): 3 (Herbicidal rate of 40% or more and less than 70%)
CC(=O)COc1cccc(-c2sc3ccc(F)cc3c2-c2c(O)c(C)nn(C)c2=O)c1 [2-275] | 3 (Herbicidal rate of 40% or more and less than 70%) | 5 (Herbicidal rate of 90% or more (almost completely withered)) | 0 (Herbicidal rate of 5% or less (almost no effect)) | 0 (Herbicidal rate of 5% or less (almost no effect)) | 3 (Herbicidal rate of 40% or more and less than 70%) | 4 (Herbicidal rate of 70% or more and less than 90%) | 0 (Herbicidal rate of 5% or less (almost no effect)) | 3 (Herbicidal rate of 40% or more and less than 70%) | 0 (Herbicidal rate of 5% or less (almost no effect)) | 3 (Herbicidal rate of 40% or more and less than 70%) | 3 (Herbicidal rate of 40% or more and less than 70%) | 0 (Herbicidal rate of 5% or less (almost no effect)) | 2 (Herbicidal rate of 20% or more and less than 40%) | 0 (Herbicidal rate of 5% or less (almost no effect)) | 0 (Herbicidal rate of 5% or less (almost no effect)) | 4 (Herbicidal rate of 70% or more and less than 90%) | 1 (Herbicidal rate of 5% or more and less than 20%) | 3 (Herbicidal rate of 40% or more and less than 70%) | O: lambsquarters, herbicidal effect (criteria 0-5) (lambsquarters [8]; AAH 320 g/ha): 2 (Herbicidal rate of 20% or more and less than 40%); L: windgrass, herbicidal effect (criteria 0-5) (windgrass [10]; AAH 320 g/ha): 0 (Herbicidal rate of 5% or less (almost no effect)); I: wild oat, herbicidal effect (criteria 0-5) (wild oat [11]; AAH 320 g/ha): 0 (Herbicidal rate of 5% or less (almost no effect)); G: green foxtail, herbicidal effect (criteria 0-5) (green foxtail [12]; AAH 320 g/ha): 4 (Herbicidal rate of 70% or more and less than 90%); H: barnyard grass, herbicidal effect (criteria 0-5) (barnyard grass [13]; AAH 320 g/ha): 3 (Herbicidal rate of 40% or more and less than 70%); M: velvetleaf, herbicidal effect (criteria 0-5) (velvetleaf [14]; AAH 320 g/ha): 3 (Herbicidal rate of 40% or more and less than 70%); F: southern crabgrass, herbicidal effect (criteria 0-5) (southern crabgrass [15]; AAH 320 g/ha): 5 (Herbicidal rate of 90% or more (almost completely withered)); K: Italian ryegrass, herbicidal effect (criteria 0-5) (Italian ryegrass [16]; AAH 320 g/ha): 0 (Herbicidal rate of 5% or less (almost no effect)); J: blackgrass, herbicidal effect (criteria 0-5) (blackgrass [17]; AAH 320 g/ha): 0 (Herbicidal rate of 5% or less (almost no effect)); R: persian speedwell, herbicidal effect (criteria 0-5) (persian speedwell [19]; AAH 320 g/ha): 5 (Herbicidal rate of 90% or more (almost completely withered)); P: chickweed, herbicidal effect (criteria 0-5) (chickweed [24]; AAH 320 g/ha): 5 (Herbicidal rate of 90% or more (almost completely withered)); N: redroot pigweed, herbicidal effect (criteria 0-5) (redroot pigweed [25]; AAH 320 g/ha): 4 (Herbicidal rate of 70% or more and less than 90%)
